The results in this text go back to US8785452B2, “Anti-infective compounds” (priority 2008, dated 2014).

Series [1] deals with M. tuberculosis H37Rv-GFP. Kind of series: microbe, parasite or virus in culture. Particulars: Mycobacterium tuberculosis, H37RV, Macrophage. The class given is cell-based, Mycobacterium tuberculosis.
Series [2] concerns Raw264.7 cells. Kind of series: Cell number (CellNb) from image analysis of the phenotypic cell-based assay. Particulars: primary screen, 20 μM.
Where [3] appears, read: confirmation, 20 uM, intracellular, read-out: QIM Confirm % Inhibition 20 uM.
[4] abbreviates: primary screen, 20 μM, intracellular, read-out: Primary QIM % Inhibition.
The mark [5] stands for this setting: read-out: Primary QIM % Inhibition.
Where [6] appears, read: read-out: QIM Confirm % Inhibition 20 uM.

As a reminder, the inhibition is the relative decrease from the control value, in per cent.

The structures appear in SMILES notation. Like-named read-outs stand apart in the source and are kept apart here.

`CC(C)(C)c1cc(C(=O)N/N=C2\C(=O)N(Cc3ccccc3)c3ccccc32)[nH]n1` [IPK 000 138 12]: the inhibition at 20 µM in series [1] (setting [3]) worked out at 105%; in series [1] (setting [4]) it was 96.8%. Also, the “Primary QIM CellNb” value in series [2] worked out at 480.8.
With `O=C(COc1cccc(Cl)c1)N/N=C/c1ccc([N+](=O)[O-])o1` [IPK 000 147 98], the inhibition at 20 µM in series [1] (setting [3]) amounted to 72.3%; in series [1] (setting [4]), 6.3%.
On the same counts, the results for `O=C1Nc2ccccc2/C1=C(\c1ccccc1)c1nc2ccccc2[nH]1` [IPK 000 259 35] are 68.8% and 66%.
The like results for `CCC1=NN(C(=O)c2ccncc2)C(O)(C(F)(F)F)C1` (stereo not shown) [IPK 000 134 50] were, in that order, 101% and 99.7%.
The like results for `Cc1ccsc1/C=N/NC(=O)Cc1cc(=O)[nH][nH]1` [IPK 000 219 30] were, in that order, 93% and 104%.
For the compound `CSc1ccc(/C=N/c2ccccc2O)cc1` [IPK 000 169 96], the inhibition at 20 µM in series [1] (setting [3]) was 14.7%; in series [1] (setting [4]) it was -50.2%.
`O=C(CCC(=O)Nc1ccccc1)N/N=C/c1ccc([N+](=O)[O-])o1` [IPK 000 262 39]: the inhibition at 20 µM stood at 29.5% in series [1] (setting [3]) and 2.1% in series [1] (setting [4]).
On the same counts, the results for `COc1cc2ccccc2cc1C(=O)Nc1nccs1` [IPK 000 133 02] are 37.2% and -44.8%.
Regarding `O=C(NNC(=O)c1cc([N+](=O)[O-])cc([N+](=O)[O-])c1)c1ccc(COc2ccc3c(c2)CCC3)cc1` [IPK 000 149 44], the inhibition at 20 µM was 57.6% in series [1] (setting [5]) and 47.1% in series [1] (setting [6]).
With `O=C(N/N=C/c1ccccc1)c1ccncc1` [IPK 000 219 27], the inhibition at 20 µM in series [1] (setting [3]) came to 57.4%; in series [1] (setting [4]) it was 96.9%.
On the same counts, the results for `O=C(CCc1ccccc1)N1CCN(Cc2ccccc2)CC1` [IPK 000 126 73] are 60.8% and 85.7%.
On the same counts, the results for `Cc1noc(NS(=O)(=O)c2ccc(N)cc2)c1C` [IPK 000 254 12] are 13.2% and 30.3%.
Take `c1cc2c3c(cccc3c1)NC1(CCCCCC1)N2` [IPK 000 141 61]: the inhibition at 20 µM in series [1] (setting [3]) is 50.8%; in series [1] (setting [4]), 4.2%.
On the same counts, the results for `O=C(/C=C/c1ccccc1F)c1ccc(Cl)cc1` [IPK 000 172 35] are 59.9% and 0.9%.
As for `CS(=O)(=O)c1nc(-c2ccc(Cl)cc2)n[nH]1` [IPK 000 134 63], the inhibition at 20 µM in series [1] (setting [3]) is 12.6%; in series [1] (setting [4]), -18.3%.
As to `CCOc1ccc(C(=O)/C=C/c2ccccc2F)cc1` [IPK 000 172 34], the inhibition at 20 µM was 12.5% in series [1] (setting [3]) and -82.4% in series [1] (setting [4]).
The like results for `CC(C)c1ccc(OCC(=O)N/N=C\c2ccccc2OCC(=O)O)cc1` [IPK 000 138 43] were, in that order, 78.9% and 76.3%.
The like results for `O=[N+]([O-])c1ccc(/C=N/N(CCO)C2=NS(=O)(=O)c3ccccc32)o1` [IPK 000 222 32] were, in that order, 63.2% and 16.2%.
The like results for `O=C(c1ccc([N+](=O)[O-])o1)N1CCCc2ccccc21` [IPK 000 161 32] were, in that order, 17.8% and -37.9%.
On to `C/C(=N\NC(=O)COc1cccc(Br)c1)c1ccccn1` [IPK 000 157 55], for which the figures for the inhibition at 20 µM in series [1] (setting [3]) and in series [1] (setting [4]) were 19.9% and 22%, respectively.
The like results for `C/C(=N\NC(=S)Nc1cccc(C)c1)c1ccco1` [IPK 000 173 45] were, in that order, 19.2% and 14.9%.
Take `Cc1ccccc1C(=O)NNC(=O)c1cc([N+](=O)[O-])cc([N+](=O)[O-])c1` [IPK 000 169 30]: the inhibition at 20 µM is 56.2% in series [1] (setting [5]) and 73.7% in series [1] (setting [6]).
On to `O=C(Nc1cccc(C(F)(F)F)c1)c1cccs1` [IPK 000 202 08], for which the inhibition at 20 µM in series [1] (setting [3]) is 67.4%; in series [1] (setting [4]), 65.7%.
The like results for `NNC(=O)c1ccc(COc2ccc(Cl)cc2Cl)o1` [IPK 000 140 81] were, in that order, 91.8% and 94.6%.
The like results for `Cc1ccc(CNC(=O)c2ccc(F)cc2)cc1` [IPK 000 205 42] were, in that order, 69.3% and 71.5%.
On the same counts, the results for `CS(=O)(=O)c1nnnn1-c1ccccc1` [IPK 000 244 12] are 11.8% and 29.9%.
On to `O=c1[nH]cc(Sc2cccc3cccnc23)c(=O)[nH]1` [IPK 000 149 02], for which the inhibition at 20 µM in series [1] (setting [3]) is 19.1%; in series [1] (setting [4]) it was 23.5%.
On the same counts, the results for `O=C(N/N=C/c1c(Cl)cccc1Cl)c1ccncc1` [IPK 000 170 33] are 96.3% and 49.5%.
`CCCCNC(=O)c1cc([N+](=O)[O-])cc([N+](=O)[O-])c1` [IPK 000 046 87]: the inhibition at 20 µM stood at 74.4% in series [1] (setting [5]) and 56.3% in series [1] (setting [6]).
In the case of `Cc1cc(OCC(=O)NN)ccc1Br` [IPK 000 192 59], the results for the inhibition at 20 µM in series [1] (setting [3]) and in series [1] (setting [4]) were 81.1% and 65.3%, respectively.
`CCC(=O)Nc1ccc(-c2csc(N/N=C/c3ccc(SC)cc3)n2)cc1` [IPK 000 163 27]: the inhibition at 20 µM came out at 17.9% in series [1] (setting [3]) and 69.5% in series [1] (setting [4]).
On the same counts, the results for `CCCC(C)c1ccc(OCC(=O)N/N=C/c2ccsc2)cc1` (stereo not shown) [IPK 000 148 11] are 86.6% and 65.4%.
The like results for `CCOC(=O)C1=C(COc2ccc(F)cc2)NC(=O)NC1c1ccc2c(c1)OCO2` (stereo not shown) [IPK 000 251 80] were, in that order, 38.2% and 25.5%.
The like results for `CC(=O)OC(OC(C)=O)c1ccc([N+](=O)[O-])s1` [IPK 000 155 36] were, in that order, 74% and 67.8%.
Regarding `Cc1ccc(/C=N/NC(=O)c2ccncc2)o1` [IPK 000 219 26], the inhibition at 20 µM in series [1] (setting [3]) was 51.4%; in series [1] (setting [4]), 91.1%.
Regarding `O=C(Nc1ccc(Cl)c(Cl)c1)c1ccc(Cn2cc(Cl)cn2)cc1` [IPK 000 180 16], the inhibition at 20 µM came out at 69.8% in series [1] (setting [3]) and 46.1% in series [1] (setting [4]).
On the same counts, the results for `COc1ccc(/C=C2/c3ccccc3-c3ccc(C(=O)CCCCN4CCCCC4)cc32)cc1` [IPK 000 198 56] are 64.7% and 15.1%.
The like results for `Cc1ccsc1/C=C/c1ccccc1O` [IPK 000 179 05] were, in that order, 16.6% and -31.7%.
For the compound `C/C(=N/c1ccc(S(=O)(=O)N2CCOCC2)cc1)Nc1ccc(C(=O)O)c(O)c1` [IPK 000 128 37], the inhibition at 20 µM came out at 26.5% in series [1] (setting [3]) and 43.8% in series [1] (setting [4]).
On the same counts, the results for `COc1cc(/C=N/NC(=O)c2ccncc2)cc(Br)c1OCc1ccccc1Cl` [IPK 000 157 51] are 46.2% and 96%.
On the same counts, the results for `O=C(CCCCC1=CCCS1)Nc1ccc(C(F)(F)F)cc1` [IPK 000 148 64] are 71.4% and 72.5%.
Regarding `O=C(CSC1=NCCS1)Nc1ccc(Br)cc1F` [IPK 000 150 41], the values for the inhibition at 20 µM in series [1] (setting [3]) and in series [1] (setting [4]) were 83.3% and 78.3%, respectively.
